Measurements taken from patent publication US11746116B2, “Antibiotic resistance breakers” (KING'S COLLEGE LONDON, priority 2017, dated 2023).
In brackets after ≈: the same amount, converted by molar mass. Several values for one entry are separate records, joined by “and”; a condition that tells them apart may be missing. Equal values may be shown once.

Experiments:
KP13368 = assay: MIC, microdilution broth method; assay type: cell-based; settings: for MIC, KP13368: ESKAPE panel, Gram-negative
M6 = assay: MIC, microdilution broth method; assay type: cell-based; settings: for MIC, M6: ESKAPE panel, Gram-negative, in µg/mL
AYE = assay: MIC, microdilution broth method; assay type: cell-based, Acinetobacter baumannii; settings: for MIC, AYE: ESKAPE panel, Gram-negative, in µg/mL
Ab17978 = assay: MIC, microdilution broth method; assay type: cell-based; settings: for MIC, Ab17978: ESKAPE panel, Gram-negative, in µg/mL
PA01 = assay: MIC, microdilution broth method; assay type: cell-based, Pseudomonas aeruginosa; settings: for MIC, PA01: ESKAPE panel, Gram-negative, in µg/mL
PA13437 = assay: MIC, microdilution broth method; assay type: cell-based; settings: ESKAPE panel, Gram-negative
EC12923 = assay: MIC, microdilution broth method; assay type: cell-based; settings: for MIC, EC12923: ESKAPE panel, Gram-negative, in µg/mL
MSSA9144 = assay: MIC, microdilution broth method; assay type: cell-based, Staphylococcus aureus; settings: for MIC, MSSA9144: ESKAPE panel, Gram-positive, in µg/mL
EMRSA15 = assay: MIC, microdilution broth method; assay type: cell-based, Staphylococcus aureus; settings: for MIC, EMRSA15: in µg/mL
EMRSA16 = assay: MIC, microdilution broth method; assay type: cell-based, Staphylococcus aureus; settings: for MIC, EMRSA16: in µg/mL
VSE775 = assay: MIC, microdilution broth method; assay type: cell-based, Enterococcus faecalis; design: MIC, VSE775: unit not given beside the values; settings: for MIC, VSE775: ESKAPE panel, Gram-positive
VRE12201 = assay: MIC, microdilution broth method; assay type: cell-based, Enterococcus faecalis; settings: for MIC, VRE12201: ESKAPE panel, Gram-positive, in µg/mL
VRE12204 = assay: MIC, microdilution broth method; assay type: cell-based, Enterococcus faecium; settings: ESKAPE panel, Gram-positive; in µg/mL
[1] = system: Staphylococcus aureus ATCC29213; assay: Murine thigh infection model, thigh bacterial burden; assay type: in vivo; settings: individual thigh samples, ICR mice

## C[C@H]1COc2c(N3CCC(Nc4ncccn4)C3)c(F)cc3c(=O)c(C(=O)O)cn1c23 (stereo partly drawn) [KSN-82-L7, (3S)-9-fluoro-3-methyl-7-oxo-10-(3-(pyrimidin-2-ylamino)pyrrolidin-1-yl)-2,3-dihydro-7H-[1,4]oxazino[2,3,4-ij]quinoline-6-carboxylic acid]
KP13368
  MIC, KP13368: 16 µg/mL (≈ 37.6 µM)
M6
  MIC, M6: 4-8
AYE
  MIC, AYE: 16-32
Ab17978
  MIC, Ab17978: 0.5
PA01
  MIC, PA01: 8-32
PA13437
  MIC, PA13437: > 32 µg/mL
EC12923
  MIC, EC12923: 1
MSSA9144
  MIC, MSSA9144: 0.06
EMRSA15; ESKAPE panel, Gram-positive
  MIC, EMRSA15: 4
EMRSA16; ESKAPE panel, Gram-positive
  MIC, EMRSA16: 4
VSE775
  MIC, VSE775: 0.5
VRE12201
  MIC, VRE12201: 0.5
VRE12204
  MIC, VRE12204: 4
[1]; 20 mg/kg
  Bacterial burden data: 6.42E+02 CFU/g and 1.94E+03 CFU/g and 1.60E+03 CFU/g and 3.05E+03 CFU/g and 1.51E+03 CFU/g and 1.18E+04 CFU/g and 2.48E+03 CFU/g and 3.92E+03 CFU/g and 5.78E+02 CFU/g and 1.80E+03 CFU/g
[1]; 50 mg/kg
  Bacterial burden data: 5.94E+02 CFU/g and 2.63E+03 CFU/g and 2.00E+03 CFU/g and 1.44E+03 CFU/g and 9.34E+02 CFU/g and 1.14E+03 CFU/g and 2.58E+03 CFU/g and 1.98E+03 CFU/g and 5.78E+02 CFU/g and 1.70E+03 CFU/g

## C[C@H]1COc2c(N3CC[C@H](Nc4ncccn4)C3)c(F)cc3c(=O)c(C(=O)O)cn1c23 [KSN-L19]
KP13368
  MIC, KP13368: > 32 µg/mL
M6
  MIC, M6: 4
AYE
  MIC, AYE: >32
Ab17978
  MIC, Ab17978: 4
PA01
  MIC, PA01: >32
PA13437
  MIC, PA13437: > 32 µg/mL
EC12923
  MIC, EC12923: 4
MSSA9144
  MIC, MSSA9144: 0.25
EMRSA15; ESKAPE panel, Gram-positive
  MIC, EMRSA15: 8
EMRSA16; ESKAPE panel, Gram-positive
  MIC, EMRSA16: 8
VSE775
  MIC, VSE775: 2
VRE12201
  MIC, VRE12201: 1
VRE12204
  MIC, VRE12204: 4

## C[C@H]1COc2c(N3CC[C@H](Nc4cc(NC5CC5)ncn4)C3)c(F)cc3c(=O)c(C(=O)O)cn1c23 [KSN-L21, (S)-10-((S)-3-((6-(cyclopropylamino)pyrimidin-4-yl)amino)pyrrolidin-1-yl)-9-fluoro-3-methyl-7-oxo-2,3-dihydro-7H-[1,4]oxazino[2,3,4-ij]quinoline-6-carboxylic acid]
KP13368
  MIC, KP13368: > 32 µg/mL
M6
  MIC, M6: 16
AYE
  MIC, AYE: >32
Ab17978
  MIC, Ab17978: 2
PA01
  MIC, PA01: >32
PA13437
  MIC, PA13437: > 32 µg/mL
EC12923
  MIC, EC12923: 0.5
MSSA9144
  MIC, MSSA9144: 0.5
EMRSA15; ESKAPE panel, Gram-positive
  MIC, EMRSA15: 32
EMRSA16; ESKAPE panel, Gram-positive
  MIC, EMRSA16: >32
VSE775
  MIC, VSE775: 4
VRE12201
  MIC, VRE12201: 1
VRE12204
  MIC, VRE12204: 16

## C[C@H]1COc2c(N3CC[C@@H](Nc4ncc(F)cn4)C3)c(F)cc3c(=O)c(C(=O)O)cn1c23 [KSN-L34, (S)-9-fluoro-10-((R)-3-((5-fluoropyrimidin-2-yl)amino)pyrrolidin-1-yl)-3-methyl-7-oxo-2,3-dihydro-7H-[1,4]oxazino[2,3,4-ij]quinoline-6-carboxylic acid]
KP13368
  MIC, KP13368: 32 µg/mL (≈ 72.2 µM)
KP13368; Klebsiella pneumoniae (KP13368), Gram-Negative, read-out: MIC
  MIC: 32 µg/mL (≈ 72.2 µM)
M6
  MIC, M6: 2
M6; Klebsiella pneumoniae (M6), Gram-Negative, read-out: MIC
  MIC: 2 µg/mL (≈ 4.51 µM)
AYE; Acinetobacter baumannii (AYE), Gram-Negative, read-out: MIC
  MIC: 4 µg/mL (≈ 9.02 µM)
AYE
  MIC, AYE: 4
Ab17978; Acinetobacter baumannii (AB17978), Gram-Negative, read-out: MIC
  MIC: ≤ 0.125 µg/mL
Ab17978
  MIC, Ab17978: ≤0.125
PA01
  MIC, PA01: 4
PA01; Pseudomonas aeruginosa (PA01), Gram-Negative, read-out: MIC
  MIC: 4 µg/mL (≈ 9.02 µM)
PA13437
  MIC, PA13437: > 32 µg/mL
EC12923
  MIC, EC12923: 0.125
EC12923; Escherichia coli (EC12923), Gram-Negative, read-out: MIC
  MIC: 0.125 µg/mL (≈ 0.282 µM)
MSSA9144
  MIC, MSSA9144: ≤0.125
MSSA9144; Staphylococcus aureus (MSSA9144), Gram-Positive, read-out: MIC
  MIC: ≤ 0.125 µg/mL
EMRSA15; EMRSA15 (Table 16, role of the terminal pyrimidine ring)
  MIC, EMRSA15: 0.5
EMRSA15; ESKAPE panel, Gram-positive
  MIC, EMRSA15: 0.5
EMRSA15; Staphylococcus aureus, Staphylococcus aureus (EMRSA15), Gram-Positive (Table 14), read-out: MIC
  MIC: 0.5 µg/mL (≈ 1.13 µM)
EMRSA16; EMRSA16 (Table 16, role of the terminal pyrimidine ring)
  MIC, EMRSA16: 1
EMRSA16; ESKAPE panel, Gram-positive
  MIC, EMRSA16: 1
EMRSA16; Staphylococcus aureus (EMRSA16), Gram-Positive (Table 14), read-out: MIC
  MIC: 1 µg/mL (≈ 2.26 µM)
VSE775
  MIC, VSE775: ≤0.125
VSE775; Enterococcus faecalis, Enterococcus (VRE775), Gram-Positive, read-out: MIC
  MIC: ≤ 0.125 µg/mL
VRE12201
  MIC, VRE12201: ≤0.125
VRE12201; Enterococcus faecalis, Enterococcus (VRE12201), Gram-Positive, read-out: MIC
  MIC: ≤ 0.125 µg/mL
VRE12204
  MIC, VRE12204: 1

## C[C@H]1COc2c(N3CC[C@@H](N(C)C4CC4)C3)c(F)cc3c(=O)c(C(=O)O)cn1c23 [KSN-L36, (S)-10-((R)-3-(cyclopropyl(methyl)amino)pyrrolidin-1-yl)-9-fluoro-3-methyl-7-oxo-2,3-dihydro-7H-[1,4]oxazino[2,3,4-ij]quinoline-6-carboxylic acid]
KP13368
  MIC, KP13368: 32 µg/mL (≈ 79.7 µM)
M6
  MIC, M6: 2-4
AYE
  MIC, AYE: 64
Ab17978
  MIC, Ab17978: 0.5-1
PA01
  MIC, PA01: 16
PA13437
  MIC, PA13437: > 64 µg/mL
EC12923
  MIC, EC12923: 0.5-1
MSSA9144
  MIC, MSSA9144: 0.25-0.5
EMRSA15; ESKAPE panel, Gram-positive
  MIC, EMRSA15: 32
EMRSA16; ESKAPE panel, Gram-positive
  MIC, EMRSA16: 32
VSE775
  MIC, VSE775: 4
VRE12201
  MIC, VRE12201: 2
VRE12204
  MIC, VRE12204: 8
